Data: ChEMBL document CHEMBL5291721, “A preclinical secondary pharmacology resource illuminates target-adverse drug reaction associations of marketed drugs” (Nat Commun, 2023)

Tests used:
Adenosine receptor A1 = target: T1, Adenosine receptor A1 (Homo sapiens, UniProt P30542)
T1 sequence (P30542 whole entry): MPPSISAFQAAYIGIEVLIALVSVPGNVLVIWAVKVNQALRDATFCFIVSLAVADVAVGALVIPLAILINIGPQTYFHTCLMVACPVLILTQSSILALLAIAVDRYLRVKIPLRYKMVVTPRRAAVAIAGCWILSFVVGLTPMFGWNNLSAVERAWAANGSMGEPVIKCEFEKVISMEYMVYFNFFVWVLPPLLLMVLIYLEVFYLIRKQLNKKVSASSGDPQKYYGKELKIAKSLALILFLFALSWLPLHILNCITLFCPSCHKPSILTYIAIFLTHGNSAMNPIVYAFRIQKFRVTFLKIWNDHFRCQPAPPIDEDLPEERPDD

[1] = target: T2, Alpha-1A adrenergic receptor (Homo sapiens, UniProt P35348); format: functional, cell-based
T2 sequence (P35348 whole entry): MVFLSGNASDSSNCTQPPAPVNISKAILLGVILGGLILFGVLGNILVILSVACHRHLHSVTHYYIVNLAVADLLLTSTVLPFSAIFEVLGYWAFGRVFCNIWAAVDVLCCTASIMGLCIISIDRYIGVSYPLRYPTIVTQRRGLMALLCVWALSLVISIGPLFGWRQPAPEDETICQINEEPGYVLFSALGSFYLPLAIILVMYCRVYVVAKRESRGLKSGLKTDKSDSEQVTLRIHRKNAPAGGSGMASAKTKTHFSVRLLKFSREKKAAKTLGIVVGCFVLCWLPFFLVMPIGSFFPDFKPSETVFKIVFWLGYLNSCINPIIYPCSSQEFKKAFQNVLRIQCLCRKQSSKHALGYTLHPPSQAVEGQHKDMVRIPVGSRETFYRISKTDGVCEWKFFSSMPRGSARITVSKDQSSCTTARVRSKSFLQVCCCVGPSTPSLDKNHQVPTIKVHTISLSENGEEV

[2] = target: T3, Alpha-2B adrenergic receptor (Homo sapiens, UniProt P18089)
T3 sequence (P18089 whole entry): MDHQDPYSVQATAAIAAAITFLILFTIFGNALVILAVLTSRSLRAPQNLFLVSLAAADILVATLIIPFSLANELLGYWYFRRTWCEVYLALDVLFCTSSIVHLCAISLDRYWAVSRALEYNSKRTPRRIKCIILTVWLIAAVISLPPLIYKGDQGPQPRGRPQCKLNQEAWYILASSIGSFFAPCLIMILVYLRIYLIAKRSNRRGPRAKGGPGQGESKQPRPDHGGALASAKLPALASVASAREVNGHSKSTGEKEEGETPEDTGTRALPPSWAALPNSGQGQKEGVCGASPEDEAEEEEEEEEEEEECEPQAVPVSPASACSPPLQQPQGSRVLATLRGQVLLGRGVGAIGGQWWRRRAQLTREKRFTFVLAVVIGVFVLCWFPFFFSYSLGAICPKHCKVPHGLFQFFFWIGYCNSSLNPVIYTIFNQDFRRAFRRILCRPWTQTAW

[3] = target: Beta-2 adrenergic receptor (Homo sapiens, UniProt P07550); format: functional, cell-based
Sequence of Beta-2 adrenergic receptor (P07550 whole entry): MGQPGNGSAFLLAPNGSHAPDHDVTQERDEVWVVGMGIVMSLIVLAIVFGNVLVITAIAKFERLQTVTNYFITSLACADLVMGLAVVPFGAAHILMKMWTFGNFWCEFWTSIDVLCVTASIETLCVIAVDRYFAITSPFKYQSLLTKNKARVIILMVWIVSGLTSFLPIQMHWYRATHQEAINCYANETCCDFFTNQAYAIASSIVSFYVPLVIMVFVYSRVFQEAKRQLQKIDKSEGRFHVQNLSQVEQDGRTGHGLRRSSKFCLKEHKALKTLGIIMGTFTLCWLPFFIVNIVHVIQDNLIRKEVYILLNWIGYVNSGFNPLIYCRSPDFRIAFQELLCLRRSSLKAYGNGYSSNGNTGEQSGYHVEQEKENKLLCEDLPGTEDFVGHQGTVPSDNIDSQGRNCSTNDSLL

Vasopressin V2 receptor = Vasopressin V2 receptor (Homo sapiens, UniProt P30518)
Sequence of Vasopressin V2 receptor (P30518 whole entry): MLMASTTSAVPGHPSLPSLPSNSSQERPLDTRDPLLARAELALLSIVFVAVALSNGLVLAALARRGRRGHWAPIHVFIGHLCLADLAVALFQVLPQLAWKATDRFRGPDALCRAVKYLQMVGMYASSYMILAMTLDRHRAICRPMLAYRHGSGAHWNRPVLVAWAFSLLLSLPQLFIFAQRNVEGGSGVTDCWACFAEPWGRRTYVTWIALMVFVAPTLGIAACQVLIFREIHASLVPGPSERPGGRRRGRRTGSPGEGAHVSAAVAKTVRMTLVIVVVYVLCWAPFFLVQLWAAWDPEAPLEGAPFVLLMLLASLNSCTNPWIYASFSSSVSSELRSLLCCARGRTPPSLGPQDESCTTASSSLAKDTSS

[4] = target: Voltage-dependent L-type calcium channel subunit alpha-1C (Rattus norvegicus, UniProt P22002); format: functional
Sequence of Voltage-dependent L-type calcium channel subunit alpha-1C (P22002 whole entry): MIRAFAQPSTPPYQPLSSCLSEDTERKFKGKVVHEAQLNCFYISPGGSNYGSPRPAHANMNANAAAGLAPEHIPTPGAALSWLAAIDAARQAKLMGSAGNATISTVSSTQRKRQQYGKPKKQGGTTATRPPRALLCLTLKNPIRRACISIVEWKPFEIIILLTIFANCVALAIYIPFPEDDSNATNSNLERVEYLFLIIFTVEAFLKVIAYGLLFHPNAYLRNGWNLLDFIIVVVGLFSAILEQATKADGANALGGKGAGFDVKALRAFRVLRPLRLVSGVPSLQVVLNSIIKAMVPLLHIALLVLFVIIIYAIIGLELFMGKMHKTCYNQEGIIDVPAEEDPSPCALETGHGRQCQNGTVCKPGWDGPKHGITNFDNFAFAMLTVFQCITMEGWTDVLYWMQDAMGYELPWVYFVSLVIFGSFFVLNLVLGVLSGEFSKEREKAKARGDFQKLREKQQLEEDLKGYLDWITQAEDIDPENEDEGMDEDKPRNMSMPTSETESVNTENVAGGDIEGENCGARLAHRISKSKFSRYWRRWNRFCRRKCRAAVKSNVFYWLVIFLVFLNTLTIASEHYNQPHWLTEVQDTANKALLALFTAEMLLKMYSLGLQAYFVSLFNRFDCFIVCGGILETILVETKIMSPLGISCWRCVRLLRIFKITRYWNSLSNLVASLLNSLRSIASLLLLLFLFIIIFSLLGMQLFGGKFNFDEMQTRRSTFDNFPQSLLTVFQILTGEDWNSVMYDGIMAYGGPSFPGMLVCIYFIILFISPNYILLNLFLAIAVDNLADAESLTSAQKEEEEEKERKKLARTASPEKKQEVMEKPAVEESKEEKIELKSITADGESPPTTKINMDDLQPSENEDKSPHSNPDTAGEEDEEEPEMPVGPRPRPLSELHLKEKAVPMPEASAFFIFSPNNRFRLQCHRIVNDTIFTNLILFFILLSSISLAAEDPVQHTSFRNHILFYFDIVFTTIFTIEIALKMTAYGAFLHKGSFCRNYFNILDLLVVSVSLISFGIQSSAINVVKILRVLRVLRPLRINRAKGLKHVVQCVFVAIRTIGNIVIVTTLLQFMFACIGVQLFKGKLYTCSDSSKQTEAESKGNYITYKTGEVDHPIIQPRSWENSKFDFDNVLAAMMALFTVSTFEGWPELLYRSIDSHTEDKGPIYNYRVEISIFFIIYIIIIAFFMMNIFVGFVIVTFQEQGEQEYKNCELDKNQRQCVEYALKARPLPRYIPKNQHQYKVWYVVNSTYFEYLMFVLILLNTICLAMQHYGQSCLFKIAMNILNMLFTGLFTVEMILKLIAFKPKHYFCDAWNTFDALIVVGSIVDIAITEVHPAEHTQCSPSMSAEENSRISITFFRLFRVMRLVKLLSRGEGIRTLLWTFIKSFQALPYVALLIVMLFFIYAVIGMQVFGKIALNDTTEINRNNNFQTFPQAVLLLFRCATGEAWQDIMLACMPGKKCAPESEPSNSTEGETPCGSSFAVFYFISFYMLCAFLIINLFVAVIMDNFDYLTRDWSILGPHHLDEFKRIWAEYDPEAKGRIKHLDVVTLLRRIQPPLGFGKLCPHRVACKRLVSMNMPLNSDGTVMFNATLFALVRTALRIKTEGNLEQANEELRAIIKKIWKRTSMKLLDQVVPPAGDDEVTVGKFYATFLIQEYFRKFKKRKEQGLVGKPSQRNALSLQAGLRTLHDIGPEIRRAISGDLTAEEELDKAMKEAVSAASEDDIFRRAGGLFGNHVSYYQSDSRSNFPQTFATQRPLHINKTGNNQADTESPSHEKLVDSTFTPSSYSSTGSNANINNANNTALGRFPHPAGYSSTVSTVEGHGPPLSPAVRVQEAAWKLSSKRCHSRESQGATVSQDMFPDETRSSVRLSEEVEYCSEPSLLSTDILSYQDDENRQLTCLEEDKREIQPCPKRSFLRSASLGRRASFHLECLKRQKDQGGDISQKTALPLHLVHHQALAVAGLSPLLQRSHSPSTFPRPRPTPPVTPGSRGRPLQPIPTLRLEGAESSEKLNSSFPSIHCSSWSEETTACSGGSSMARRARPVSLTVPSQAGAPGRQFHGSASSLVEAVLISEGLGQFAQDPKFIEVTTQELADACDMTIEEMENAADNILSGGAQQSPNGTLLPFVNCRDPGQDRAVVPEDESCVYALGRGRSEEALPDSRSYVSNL

[5] = target: T4, Muscarinic acetylcholine receptor M1 (Homo sapiens, UniProt P11229); format: functional
T4 sequence (P11229 whole entry): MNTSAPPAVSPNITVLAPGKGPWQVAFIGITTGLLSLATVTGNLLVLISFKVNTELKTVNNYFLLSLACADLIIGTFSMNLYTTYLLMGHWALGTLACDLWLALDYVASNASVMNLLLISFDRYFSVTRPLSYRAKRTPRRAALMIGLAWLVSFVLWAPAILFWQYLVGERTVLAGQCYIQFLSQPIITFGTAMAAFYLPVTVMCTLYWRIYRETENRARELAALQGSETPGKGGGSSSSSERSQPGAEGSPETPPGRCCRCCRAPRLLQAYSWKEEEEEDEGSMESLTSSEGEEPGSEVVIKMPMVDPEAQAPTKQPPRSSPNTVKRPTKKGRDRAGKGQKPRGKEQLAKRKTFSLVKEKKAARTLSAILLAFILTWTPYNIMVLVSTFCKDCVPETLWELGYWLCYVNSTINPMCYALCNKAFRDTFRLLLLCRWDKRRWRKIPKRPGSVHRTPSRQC

[6] = target: Neuronal acetylcholine receptor subunit alpha-4 (Homo sapiens, UniProt P43681)
Sequence of Neuronal acetylcholine receptor subunit alpha-4 (P43681 whole entry): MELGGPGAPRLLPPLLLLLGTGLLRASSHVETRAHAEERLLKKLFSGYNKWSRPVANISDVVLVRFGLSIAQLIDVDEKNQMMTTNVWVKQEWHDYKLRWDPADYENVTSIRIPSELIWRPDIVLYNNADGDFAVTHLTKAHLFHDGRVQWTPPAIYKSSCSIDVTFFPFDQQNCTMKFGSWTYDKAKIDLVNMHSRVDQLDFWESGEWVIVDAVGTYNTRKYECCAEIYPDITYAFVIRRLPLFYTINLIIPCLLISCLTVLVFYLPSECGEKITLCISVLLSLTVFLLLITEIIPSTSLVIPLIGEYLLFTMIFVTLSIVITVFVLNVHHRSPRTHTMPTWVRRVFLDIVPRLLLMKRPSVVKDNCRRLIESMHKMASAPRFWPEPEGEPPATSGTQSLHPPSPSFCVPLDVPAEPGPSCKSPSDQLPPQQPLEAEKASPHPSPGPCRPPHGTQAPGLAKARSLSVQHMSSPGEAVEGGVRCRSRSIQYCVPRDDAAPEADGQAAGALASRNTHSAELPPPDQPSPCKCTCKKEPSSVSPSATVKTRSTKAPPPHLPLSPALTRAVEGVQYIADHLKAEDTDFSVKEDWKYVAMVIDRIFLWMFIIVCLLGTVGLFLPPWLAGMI

D(1A) dopamine receptor = D(1A) dopamine receptor (Homo sapiens, UniProt P21728); format: functional, cell-based
Sequence of D(1A) dopamine receptor (P21728 whole entry): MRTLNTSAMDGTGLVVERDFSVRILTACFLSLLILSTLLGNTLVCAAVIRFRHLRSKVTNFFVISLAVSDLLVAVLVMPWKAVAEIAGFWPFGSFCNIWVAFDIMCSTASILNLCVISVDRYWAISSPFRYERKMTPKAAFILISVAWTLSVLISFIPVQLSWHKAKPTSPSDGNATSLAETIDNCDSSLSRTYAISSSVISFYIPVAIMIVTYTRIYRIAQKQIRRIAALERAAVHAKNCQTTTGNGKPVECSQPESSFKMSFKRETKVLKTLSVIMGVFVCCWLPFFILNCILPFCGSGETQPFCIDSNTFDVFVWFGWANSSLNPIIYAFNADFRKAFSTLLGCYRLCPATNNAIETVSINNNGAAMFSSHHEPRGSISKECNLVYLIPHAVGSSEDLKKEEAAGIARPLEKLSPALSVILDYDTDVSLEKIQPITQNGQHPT

[7] = target: Gamma-aminobutyric acid receptor subunit alpha-1 (Rattus norvegicus, UniProt P62813); format: functional
Sequence of Gamma-aminobutyric acid receptor subunit alpha-1 (P62813 whole entry): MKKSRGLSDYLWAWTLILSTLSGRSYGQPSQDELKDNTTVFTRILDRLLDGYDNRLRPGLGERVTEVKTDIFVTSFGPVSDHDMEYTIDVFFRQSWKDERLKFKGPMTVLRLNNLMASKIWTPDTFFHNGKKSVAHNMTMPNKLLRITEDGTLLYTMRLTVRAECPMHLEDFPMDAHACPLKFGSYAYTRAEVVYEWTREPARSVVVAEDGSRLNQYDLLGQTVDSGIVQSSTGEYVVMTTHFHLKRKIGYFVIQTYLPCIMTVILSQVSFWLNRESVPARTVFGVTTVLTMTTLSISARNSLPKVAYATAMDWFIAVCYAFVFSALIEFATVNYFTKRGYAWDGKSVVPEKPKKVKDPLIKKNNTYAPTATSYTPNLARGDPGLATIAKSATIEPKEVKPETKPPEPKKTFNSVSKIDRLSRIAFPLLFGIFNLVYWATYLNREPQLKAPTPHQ

[8] = target: T5, 5-hydroxytryptamine receptor 2C (Homo sapiens, UniProt P28335)
T5 sequence (P28335 whole entry): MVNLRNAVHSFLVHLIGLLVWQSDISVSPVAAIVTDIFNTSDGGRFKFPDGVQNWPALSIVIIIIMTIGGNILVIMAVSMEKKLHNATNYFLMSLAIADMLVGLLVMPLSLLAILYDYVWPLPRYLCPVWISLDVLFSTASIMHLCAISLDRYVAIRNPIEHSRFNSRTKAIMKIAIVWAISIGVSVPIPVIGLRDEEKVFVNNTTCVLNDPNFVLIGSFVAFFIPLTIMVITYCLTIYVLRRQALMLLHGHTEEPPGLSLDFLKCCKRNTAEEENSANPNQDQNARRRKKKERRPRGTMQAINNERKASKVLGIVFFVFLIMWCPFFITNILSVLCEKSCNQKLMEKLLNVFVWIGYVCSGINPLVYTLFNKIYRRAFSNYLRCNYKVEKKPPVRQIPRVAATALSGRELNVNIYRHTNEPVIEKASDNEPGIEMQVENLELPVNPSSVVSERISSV

Motilin receptor = Motilin receptor (Homo sapiens, UniProt O43193)
Sequence of Motilin receptor (O43193 whole entry): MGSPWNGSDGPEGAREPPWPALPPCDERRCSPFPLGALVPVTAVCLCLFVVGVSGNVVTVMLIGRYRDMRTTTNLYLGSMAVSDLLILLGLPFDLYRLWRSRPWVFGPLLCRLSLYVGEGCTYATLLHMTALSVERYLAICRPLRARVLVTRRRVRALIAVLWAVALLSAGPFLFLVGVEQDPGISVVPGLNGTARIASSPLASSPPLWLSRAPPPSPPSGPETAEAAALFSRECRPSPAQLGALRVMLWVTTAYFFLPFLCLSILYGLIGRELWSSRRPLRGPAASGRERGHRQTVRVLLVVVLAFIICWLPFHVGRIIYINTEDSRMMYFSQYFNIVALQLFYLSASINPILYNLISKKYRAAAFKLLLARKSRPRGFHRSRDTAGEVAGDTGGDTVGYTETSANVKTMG

[9] = target: T2, Alpha-1A adrenergic receptor; format: functional, cell-based; remark: listed apart in the source
Further: assay procedure not described here.

Structure (SMILES) | AC50 (Adenosine receptor A1) [µM] | AC50 [1] [µM] | AC50 [2] [µM] | AC50 [3] [µM] | AC50 (Vasopressin V2 receptor) [µM] | AC50 [4] [µM] | AC50 [5] [µM] | AC50 [6] [µM] | AC50 (D(1A) dopamine receptor) [µM] | AC50 [7] [µM] | AC50 [8] [µM] | AC50 (Motilin receptor) [µM] | AC50 [9] [µM]
COc1ccc(C(=O)Nc2ccccc2CCC2CCCCN2C)cc1 (stereo not drawn) [ENCAINIDE] | > 30 | > 30 | > 10 | > 30 | > 30 | > 10 | > 10 | > 10 | > 10 | > 10 | 0.81 | > 10 | > 30
CN(C)CCC=C1c2ccccc2C=Cc2ccccc21 [CYCLOBENZAPRINE] | > 30 | > 30 | > 10 | > 30 | > 30 | > 10 | 0.18 | > 10 | > 10 | > 10 | 0.88 | > 10 | 0.47
CCOc1ccccc1OCC1CNCCO1 (stereo not drawn) [VILOXAZINE] | > 30 | > 30 | > 10 | > 30 | > 30 | > 10 | > 10 | > 10 | > 10 | > 10 |  | > 10 | > 30
